Here are results for 37 compounds from patent US7553832B2, “Methods and compositions for specific inhibition of protein splicing by small molecules” (Boston Biomedical Research Institute, priority 2005, dated 2009).

Molecules are shown by their SMILES.

The assay concerns the target T1, M. tuberculosis DnaB intein (Mycobacterium tuberculosis, UniProt P9WMR3).
T1 sequence (P9WMR3 400-815 limits assumed): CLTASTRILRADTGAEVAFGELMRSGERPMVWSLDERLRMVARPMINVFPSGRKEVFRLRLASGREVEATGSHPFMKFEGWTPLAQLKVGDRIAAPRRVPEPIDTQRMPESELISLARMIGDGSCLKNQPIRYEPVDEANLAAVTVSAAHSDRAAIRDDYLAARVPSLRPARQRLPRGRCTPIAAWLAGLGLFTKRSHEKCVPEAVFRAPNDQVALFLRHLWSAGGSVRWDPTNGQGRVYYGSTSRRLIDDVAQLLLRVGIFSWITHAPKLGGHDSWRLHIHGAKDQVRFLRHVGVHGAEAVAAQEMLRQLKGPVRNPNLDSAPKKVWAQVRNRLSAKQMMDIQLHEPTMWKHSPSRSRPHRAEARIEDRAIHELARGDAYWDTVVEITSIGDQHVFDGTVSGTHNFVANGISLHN
Briefly: biochemical. It is filed as biochemical.

By IC50 is commonly meant the midpoint of a concentration-inhibition curve. The low end stands for higher potency, the high end for lower potency.

`Oc1cc2c(cc1C(c1ccc(Cl)c(Cl)c1)N1CCCC1)OCO2` (stereo not shown) [Compound 1] registered an IC50 of 30 µM. Compound `O=C(Sc1ccccc1)c1ccc2ncsc2c1` [Compound 68] yielded an IC50 of 9 µM. The same measure for `N#CC1(C#N)C(c2ccccc2Cl)C1(C#N)C#N` [Compound 21]: 15 µM. The same measure for `Oc1cc(OCc2ccc(C(F)(F)F)cc2)ccc1-c1cc[nH]n1` [Compound 44]: less than 5 µM; for `O=S(=O)(c1ccc(Br)cc1)c1snnc1-c1ccccc1` [Compound 6]: 13 µM. The same measure for `CCOC(=O)c1cc(C#N)c(Sc2nnc(SC)s2)nc1C(F)(F)F` [Compound 72]: less than 5 µM; for `COc1ccc(NC(=O)C(Cl)=C(Cl)[S+]([O-])Cc2ccc(C)cc2)cn1` (stereo not shown) [Compound 43]: less than 5 µM; for `O=C(OCn1ncc(Cl)c(Cl)c1=O)c1cccc(C(F)(F)F)c1` [Compound 38]: less than 5 µM.

The compound `N#CC(N)=C(C#N)NCc1ccccc1Sc1ccc(Cl)cc1` [Compound 29] displayed an IC50 of less than 5 µM. `COC(=O)c1sc(S(C)(=O)=O)c(C#N)c1-c1cc(C(C)(C)C)oc1C` [Compound 33] gave an IC50 of less than 5 µM. The same measure for `Oc1cc2c(cc1C(c1ccc(C(F)(F)F)cc1)N1CCOCC1)OCO2` (stereo not shown) [Compound 69]: 37 µM; for `Oc1ccc(Br)cc1CNc1cccc(C(F)(F)F)c1` [Compound 70]: 5 µM. With `COc1ccc(NC(=O)C(Cl)=C(Cl)[S+]([O-])Cc2ccccc2)cn1` (stereo not shown) [Compound 9], the midpoint of inhibition, the IC50, lay at 7 µM.

With `O=C(CCl)N1CCN2C(=O)c3ccccc3C12c1ccc(Cl)cc1` (stereo not shown) [Compound 13], the IC50 worked out at 8 µM.

`O=C(Oc1ccc(Cl)cc1)c1snnc1-c1ccccc1` [Compound 23]: the IC50 was less than 5 µM. The compound `Cc1cc(S(=O)(=O)c2ccc(C(F)(F)F)cc2[N+](=O)[O-])c(Cl)cc1Cl` [Compound 66] had a half-maximal inhibitory concentration (IC50) of less than 5 µM.

On to `Cn1cc(C(=O)c2cccc(Cl)c2Cl)cc1C(=O)C(Cl)(Cl)Cl` [Compound 40], for which the IC50 was less than 5 µM.

For the compound `CCOC(=O)CSc1nc2c(c(-c3cccs3)c1C#N)CN(C)CC2` [Compound 56], the IC50 was found to be 10 µM.

`O=C(Nn1c(C2CCCCC2)nc2ccccc2c1=O)c1cc([N+](=O)[O-])cc([N+](=O)[O-])c1Cl` [Compound 53] came in with an IC50 of less than 5 µM. Consider `[O-][S+](c1ccc(C(F)(F)F)cc1)c1cnn2c(Cl)nnc2c1` (stereo not shown) [Compound 45], for which the IC50 was less than 5 µM. For the compound `CC1(C)CC(=O)C2(C(=O)C1)C(c1ccc(Cl)cc1Cl)C2(C#N)C#N` (stereo not shown) [Compound 37], the IC50 is less than 5 µM.

Turning to `C=CCn1c(Sc2ncnc3c2sc(=S)n3CC=C)nnc1-c1ccccc1` [Compound 27], the IC50 was less than 5 µM. The same measure for `O=S(=O)(c1cccc(C(F)(F)F)c1)c1snnc1-c1ccccc1` [Compound 35]: less than 5 µM; for `COc1cccc(N(NC(=O)C(O)(c2cccc(C(F)(F)F)c2)c2cccc(C(F)(F)F)c2)C(=O)CCl)c1` [Compound 51]: less than 5 µM; for `CCCN(CCC)S(=O)(=O)c1ccc(C(=O)SCC(=O)OCC)cc1` [Compound 2]: 13 µM. The result for `O=C(c1nnsc1[S+]([O-])c1ccc(Cl)cc1)N1CCCCC1` (stereo not shown) [Compound 11] reads 8 µM; that for `O=S(=O)(c1ccc(Cl)c(Cl)c1)c1snnc1-c1ccccc1` [Compound 7], 6 µM; that for `CC1(C)CC(=O)c2c(S(C)(=O)=O)sc(C(=O)OCc3ccccc3)c2C1` [Compound 30], less than 5 µM. In turn, `CS(=O)(=O)c1cc(C(F)(F)F)cc(S(C)(=O)=O)c1S(C)(=O)=O` [Compound 3] yielded an IC50 of 17 µM. This lies in the double-digit micromolar range. The same measure for `N#CC1(C#N)C(c2cccc(I)c2)C(C(N)=O)N2C=Cc3ccccc3C21` (stereo not shown) [Compound 17]: 15 µM; for `O=[N+]([O-])c1cc(C(F)(F)F)cc([N+](=O)[O-])c1Sc1nc2ccccc2[nH]1` [Compound 55]: 7 µM; for `CCOC(=O)c1cc(C#N)c(Sc2nnc(SCC3CC3)s2)nc1C(F)(F)F` [Compound 71]: less than 5 µM. The result for `O=C(Nc1ccccc1)c1nnsc1S(=O)(=O)c1ccc(Cl)cc1` [Compound 10] reads 7 µM. In turn, `O=C(c1c[nH]c(C(=O)C(Cl)(Cl)Cl)c1)c1cccc(Cl)c1Cl` [Compound 59] returned an IC50 of less than 5 µM. The compound `N#CCSc1ccc(C#N)cc1` [Compound 24] gave an IC50 of 12 µM. In turn, `CCOC(=O)c1nnc(-c2ccccc2)nc1Sc1ccccc1C(=O)OC` [Compound 41] gave an IC50 of less than 5 µM. The result for `Cc1cc(Oc2c([N+](=O)[O-])cc(C(F)(F)F)cc2[N+](=O)[O-])ccc1Cl` [Compound 64] reads less than 5 µM.
